Structures can show the parent of a compound that is named as a salt. Where two headings read alike, the source gives them in different places.
Test: Plasma pharmacokinetics and brain distribution after single IV, IP and oral administration
Assay type: in vivo
Method: (§1) The objective of this study was to investigate the plasma pharmacokinetics and brain distribution of Compound (14 in male C57BL/6 mice following a single intravenous, intraperitoneal and oral administration. A group of sixty-three male mice were divided into three groups (Group 1: 2 mg/kg/IV; Group 2: 10 mg/kg/IP and Group 3: 10 mg/kg/PO) with each group comprising of twenty-one mice.
Animals in Group 1 were administered intravenously with Compound 15 solution formulation in 5% NMP, 5% Solutol HS-15, 30% PEG-400 and 60% Captisol (20% w/v) at 2 mg/kg dose. […] Considering mortality intravenous dose was reduced to 2 mg/kg.
Animals in Group 2 and 3 were administered with Compound 15 solution formulation in 5% NMP, 5% Solutol HS-15, 30% PEG-400 and 60% Captisol (20% w/v) at a dose of 10 mg/kg by intraperitoneal and oral route respectively.
(§2) Blood samples (approximately 60 μL) were collected under light isoflurane anesthesia from retro orbital plexus from a set of three mice at 0.08, 0.35, 1, 3, 6, 12 and 24 hr. Plasma samples were separated by centrifugation of whole blood and stored below −70±10° C. until bioanalysis. Immediately after collection of blood, brain samples were collected from set of three mice at each time point. Brain samples were homogenized using ice-cold phosphate buffer saline (pH-7.4) in a ratio of 2 (buffer):1(brain); and homogenates were stored below −70±10° C. until analysis. Total homogenate volume was three times the brain weight. All samples were processed for analysis by protein precipitation using acetonitrile and analyzed with fit-for-purpose LC/MS/MS method (LLOQ2.00 ng/mL for plasma and 3.00 ng/g for brain). Pharmacokinetic parameters were calculated using the non-compartmental analysis tool of Phoenix WinNonlin® (Version 7.0). Pharmacokinetic parameters of Compound 15 are summarized below.
as §1, with “Compound 16” for “Compound (14”, “1: 10” for “1: 2”
Animals in Group 1 were administered intravenously with Compound 16 solution formulation in 5% NMP, 5% Solutol HS-15 and 90% normal saline at 10 mg/kg dose.
Animals in Group 2 and 3 were administered with Compound 16 solution formulation in 5% NMP, 5% Solutol HS-15 and 90% normal saline at a dose of 10 mg/kg by intraperitoneal and oral route respectively.
as §2, with “(LLOQ—1.00” for “(LLOQ2.00”, “16” for “15”
as §1, with “17” for “(14”, “mice. […]” for “mice.”

[1] = male, C57BL/6, mouse, brain, ip, 10 mg/kg, IP 10 mg/kg, read-out: Brain-to-plasma ratio
[2] = male, C57BL/6, mouse, brain, po, 10 mg/kg, PO 10 mg/kg, read-out: Brain-to-plasma ratio
[3] = male, C57BL/6, mouse, in vivo, ip, 10 mg/kg
[4] = male, C57BL/6, mouse, in vivo, ip, 10 mg/kg, 12 h
[5] = male, C57BL/6, mouse, in vivo, ip, 10 mg/kg, 24 h
[6] = male, C57BL/6, mouse, in vivo, ip, 10 mg/kg, Brain concentration, individual animal
[7] = male, C57BL/6, mouse, in vivo, ip, 10 mg/kg, Mean brain conc.
[8] = male, C57BL/6, mouse, in vivo, ip, 10 mg/kg, Mean plasma conc.
[9] = male, C57BL/6, mouse, in vivo, ip, 10 mg/kg, Plasma concentration, individual animal
[10] = male, C57BL/6, mouse, in vivo, iv, 2 mg/kg
[11] = male, C57BL/6, mouse, in vivo, iv, 2 mg/kg, 6 h
[12] = male, C57BL/6, mouse, in vivo, iv, 2 mg/kg, 12 h
[13] = male, C57BL/6, mouse, in vivo, iv, 2 mg/kg, 24 h
[14] = male, C57BL/6, mouse, in vivo, iv, 2 mg/kg, Brain concentration, individual animal
[15] = male, C57BL/6, mouse, in vivo, iv, 2 mg/kg, Mean brain conc.
[16] = male, C57BL/6, mouse, in vivo, iv, 2 mg/kg, Mean plasma conc.
[17] = male, C57BL/6, mouse, in vivo, iv, 2 mg/kg, Plasma concentration, individual animal
[18] = male, C57BL/6, mouse, in vivo, po, 10 mg/kg
[19] = male, C57BL/6, mouse, in vivo, po, 10 mg/kg, 24 h
[20] = male, C57BL/6, mouse, in vivo, po, 10 mg/kg, Brain concentration, individual animal
[21] = male, C57BL/6, mouse, in vivo, po, 10 mg/kg, Mean brain conc.
[22] = male, C57BL/6, mouse, in vivo, po, 10 mg/kg, Mean plasma conc.
[23] = male, C57BL/6, mouse, in vivo, po, 10 mg/kg, Plasma concentration, individual animal
[24] = male, C57BL/6, mouse, in vivo, IV 2 mg/kg, read-out: Brain-to-plasma ratio

## [2H]C([2H])([2H])Oc1ccc(Nc2nc(-c3c(C)nc4ccccn34)cs2)cc1 [Compound 15, N-(4-(methoxy-d3)phenyl)-4-(2-methylimidazo[1,2-c]pyridin-3-yl)thiazol-2-amine hydrochloride]
[1]
  Kp at 0.08 h: 0.19
  Kp at 0.35 h: 0.63
  Kp at 1 h: 0.75
  Kp at 3 h: 0.36
  Kp at 6 h: 0.38
male, C57BL/6, mouse, brain, ip, 10 mg/kg, IP 10 mg/kg, read-out: brain-to-plasma ratio, range over time
  Kp: 0.19 to 0.75
male, C57BL/6, mouse, brain, iv, 2 mg/kg, IV 2 mg/kg, read-out: brain-to-plasma ratio, range over time
  Kp: 1.17 to 1.64
[2]
  Kp at 0.08 h: 0.1
  Kp at 0.35 h: 0.41
  Kp at 1 h: 1.03
  Kp at 3 h: 0.7
  Kp at 6 h: 0.6
male, C57BL/6, mouse, brain, po, 10 mg/kg, PO 10 mg/kg, 12 hr, read-out: Brain-to-plasma ratio
  Kp at 12 h: 0.62
male, C57BL/6, mouse, brain, po, 10 mg/kg, PO 10 mg/kg, read-out: brain-to-plasma ratio, range over time
  Kp: 0.1 to 1.03
male, C57BL/6, mouse, brain, po, 10 mg/kg, summary data, read-out: Brain to plasma ratio following a single oral dose
  Kp: 1.03
[3]
  Brain concentrations quantifiable up to: up to 6 hr
  Plasma concentrations quantifiable up to: up to 6 hr
[4]
  Brain concentration, individual animal: 0.00 ng/g
  Plasma concentration, individual animal: 0.00 ng/mL
[5]
  Brain concentration, individual animal: 0.00 ng/g
  Plasma concentration, individual animal: 0.00 ng/mL
[6]
  concentration at 0.08 h: 38.4 ng/g
  concentration at 0.35 h: 287 ng/g
  concentration at 1 h: 383 ng/g
  concentration at 3 h: 48.4 ng/g
  concentration at 12 h: 0 ng/g
  concentration at 24 h: 0 ng/g
[7]
  concentration at 0.08 h: 43.6 ng/g
  concentration at 0.35 h: 266 ng/g
  concentration at 1 h: 305 ng/g
  concentration at 3 h: 57.7 ng/g
  concentration at 6 h: 6.06 ng/g
  concentration at 12 h: 0 ng/g
  concentration at 24 h: 0 ng/g
[8]
  concentration at 0.08 h: 229 ng/mL
  concentration at 0.35 h: 422 ng/mL
  concentration at 1 h: 409 ng/mL
  concentration at 3 h: 160 ng/mL
  concentration at 6 h: 16.1 ng/mL
  concentration at 12 h: 0 ng/mL
  concentration at 24 h: 0 ng/mL
[9]
  concentration at 0.08 h: 228 ng/mL
  concentration at 0.35 h: 467 ng/mL
  concentration at 1 h: 563 ng/mL
  concentration at 3 h: 174 ng/mL
  concentration at 12 h: 0 ng/mL
  concentration at 24 h: 0 ng/mL
[10]
  Brain concentrations quantifiable up to: up to 3 hr
  Vss, fold more than normal volume of total body water (0.7 L/kg): 11 fold
[11]
  Brain concentration, individual animal: 0.00 ng/g
  Plasma concentration, individual animal: 0.00 ng/mL
[12]
  Brain concentration, individual animal: 0.00 ng/g
  Plasma concentration, individual animal: 0.00 ng/mL
[13]
  Brain concentration, individual animal: 0.00 ng/g
  Plasma concentration, individual animal: 0.00 ng/mL
[14]
  concentration at 0.08 h: 392 ng/g
  concentration at 0.35 h: 270 ng/g
  concentration at 1 h: 67.2 ng/g
  concentration at 6 h: 0 ng/g
  concentration at 12 h: 0 ng/g
  concentration at 24 h: 0 ng/g
[15]
  concentration at 0.08 h: 366 ng/g
  concentration at 0.35 h: 231 ng/g
  concentration at 1 h: 80 ng/g
  concentration at 3 h: 27.2 ng/g
  concentration at 6 h: 0 ng/g
  concentration at 12 h: 0 ng/g
  concentration at 24 h: 0 ng/g
[16]
  concentration at 0.08 h: 313 ng/mL
  concentration at 0.35 h: 149 ng/mL
  concentration at 1 h: 61.9 ng/mL
  concentration at 3 h: 16.6 ng/mL
  concentration at 6 h: 0 ng/mL
  concentration at 12 h: 0 ng/mL
  concentration at 24 h: 0 ng/mL
[17]
  concentration at 0.08 h: 298 ng/mL
  concentration at 0.35 h: 139 ng/mL
  concentration at 6 h: 0 ng/mL
  concentration at 12 h: 0 ng/mL
  concentration at 24 h: 0 ng/mL
[18]
  Brain concentrations quantifiable up to: up to 12 hr
  Plasma concentrations quantifiable up to: up to 12 hr
[19]
  Brain concentration, individual animal: 0.00 ng/g
  Plasma concentration, individual animal: 0.00 ng/mL
[20]
  concentration at 0.08 h: 8.31 ng/g
  concentration at 1 h: 190 ng/g
  concentration at 24 h: 0 ng/g
[21]
  concentration at 0.08 h: 7.99 ng/g
  concentration at 0.35 h: 108 ng/g
  concentration at 1 h: 253 ng/g
  concentration at 3 h: 66 ng/g
  concentration at 6 h: 6.63 ng/g
  concentration at 12 h: 3.63 ng/g
  concentration at 24 h: 0 ng/g
[22]
  concentration at 0.08 h: 78.2 ng/mL
  concentration at 0.35 h: 261 ng/mL
  concentration at 1 h: 245 ng/mL
  concentration at 3 h: 93.7 ng/mL
  concentration at 6 h: 11.1 ng/mL
  concentration at 12 h: 5.82 ng/mL
  concentration at 24 h: 0 ng/mL
[23]
  concentration at 0.35 h: 251 ng/mL
  concentration at 12 h: 8.42 ng/mL
  concentration at 24 h: 0 ng/mL
[24]
  Kp at 0.08 h: 1.17
  Kp at 0.35 h: 1.55
  Kp at 1 h: 1.29
  Kp at 3 h: 1.64
male, C57BL/6, mouse, plasma, po, 10 mg/kg, PO 10 mg/kg, AUClast considered, read-out: Oral bioavailability, % F
  bioavailability: 64%
male, C57BL/6, mouse, plasma, po, 10 mg/kg, summary data, read-out: Oral bioavailability
  bioavailability: 64%
male, C57BL/6, mouse, plasma, IP 10 mg/kg
  Tmax: 21 min
male, C57BL/6, mouse, plasma, IV 2 mg/kg, read-out: CL, plasma clearance
  clearance: 130 mL/min/kg
male, C57BL/6, mouse, plasma, IV 2 mg/kg, read-out: T1/2, terminal elimination half-life (converted)
  half-life: 52.8 min
male, C57BL/6, mouse, plasma, PO 10 mg/kg
  Tmax: 21 min
mouse, in vivo, iv, 10 mg/kg
  mortality immediately after dose administration: mortality was observed in four animals

From patent US12215106B2, “Pharmaceutical compounds and therapeutic methods” (RUTGERS, THE STATE UNIVERSITY OF NEW JERSEY, priority 2018, dated 2025)
